Measured values: ChEMBL document CHEMBL1150967, “Two new diterpene glycosides from the soft coral lemnalia bournei” (J Nat Prod, 1998)
Values after ≈ are worked out from the molar mass of the structure shown.

Key:
Type in all cases: functional, cell-based
[1] = Cytotoxicity against mouse S180A cells
[2] = Cytotoxicity against mouse EAC cells; settings: Ehrlich
[3] = Cytotoxicity against human HepA cells

With `CC(=O)O[C@@H]1[C@@H](O)[C@@H]2O[C@@H]([C@H](C)CCC[C@H](C)[C@@H]3CC=C(C)[C@H]4CCC(C)=C[C@@H]34)OC[C@@H](O2)[C@H]1O` [LEMNABOURSIDE B] the IC50 [1] was 40 µg/mL (≈ 81.2 µM), the IC50 [2] was 73.3 µg/mL (≈ 149 µM) and the IC50 [3] was 33.5 µg/mL (≈ 68 µM).
With `CC(=O)O[C@H]1[C@H](O)[C@@H](O)[C@@H]2O[C@@H]([C@H](C)CCC[C@H](C)[C@@H]3CC=C(C)[C@H]4CCC(C)=C[C@@H]34)OC[C@H]1O2` [LEMNABOURSIDE C] the IC50 [1] was 187 µg/mL (≈ 379 µM), the IC50 [2] was 40.5 µg/mL (≈ 82.2 µM) and the IC50 [3] was 41.4 µg/mL (≈ 84 µM).
Work on `CC1=C[C@H]2[C@H]([C@H](C)CCC[C@@H](C)C3OC[C@H]4O[C@@H](O3)[C@H](O)[C@@H](O)[C@@H]4O)CC=C(C)[C@H]2CC1` (some centres undefined) [LEMNABOURSIDE] yielded an IC50 [1] of 27.4 µg/mL (≈ 60.8 µM), an IC50 [2] of 97.8 µg/mL (≈ 217 µM) and an IC50 [3] of 31.6 µg/mL (≈ 70.1 µM).
